# From patent US10568884B2, “Compounds and compositions as protein kinase inhibitors” (Array BioPharma, Inc., priority 2009, dated 2020)
# System: not listed separately
# Experiment: Liver Microsomal Clearance Assay (mouse)
# Format: in vitro ADME
# Conditions: extraction ratio, mouse liver microsomes, 1 μM compound
# Description: (§1) The in vitro microsomal clearance assay is designed to assess potential risks associated with hepatic metabolic stability of compounds. The test compound (1 μM) was incubated with liver microsomes (0.5 mg/mL) from different species (mouse, rat, monkey, dog and human) and NADPH (1 mM) in 100 mM potassium phosphate buffer at 37° C. At specific reaction time points (0, 5, 10 and 30 minutes), reaction aliquots were removed and reactions were terminated by addition of ice cold acetonitrile containing mass spectrometry internal standard. The samples were centrifuged and the supernatants were analyzed by LC-MS/MS. In vitro metabolic half-life (t1/2, min) and intrinsic clearance (CLint, μL/min/mg) are based on the rate and extent of metabolism of the test compound as determined by the disappearance of the parent compound from the reaction mixture. These values may be scaled to predict hepatic metabolic clearance rate (CLh, mL/min/kg) and extraction ratio (ER, expressed as a ratio of the predicted hepatic metabolic clearance to hepatic blood flow in that species). In general, compounds with high predictedCLint or ER in vitro are considered to be at high risk for exposure-limiting metabolism in vivo.
row,ER Mouse,SMILES
1,0.91,"CCCS(=O)(=O)Nc1ccc(F)c(-c2nn(C(C)C)cc2-c2ccnc(NC[C@H](C)NC(=O)OC)n2)c1F [Compound 7, Methyl N-[(2S)-1-[(4-{3-[2,6-difluoro-3-(propane-1-sulfonamido)phenyl]-1-(propan-2-yl)-1H-pyrazol-4-yl}pyrimidin-2-yl)amino]propan-2-yl]carbamate]"
2,0.85,"CCCS(=O)(=O)Nc1cccc(-c2nn(C(C)C)cc2-c2ccnc(NC[C@H](C)NC(=O)OC)n2)c1F [Compound 3, methyl N-[(2S)-1-[(4-{3-[2-fluoro-3-(propane-1-sulfonamido)phenyl]-1-(propan-2-yl)-1H-pyrazol-4-yl}pyrimidin-2-yl)amino]propan-2-yl]carbamate]"

# System: not listed separately
# Experiment: Liver Microsomal Clearance Assay (human)
# Format: in vitro ADME
# Conditions: extraction ratio, human liver microsomes, 1 μM compound
# Description: as §1
row,ER Human,SMILES
1,0.65,"CCCS(=O)(=O)Nc1ccc(F)c(-c2nn(C(C)C)cc2-c2ccnc(NC[C@H](C)NC(=O)OC)n2)c1F [Compound 7, Methyl N-[(2S)-1-[(4-{3-[2,6-difluoro-3-(propane-1-sulfonamido)phenyl]-1-(propan-2-yl)-1H-pyrazol-4-yl}pyrimidin-2-yl)amino]propan-2-yl]carbamate]"
2,0.69,"CCCS(=O)(=O)Nc1cccc(-c2nn(C(C)C)cc2-c2ccnc(NC[C@H](C)NC(=O)OC)n2)c1F [Compound 3, methyl N-[(2S)-1-[(4-{3-[2-fluoro-3-(propane-1-sulfonamido)phenyl]-1-(propan-2-yl)-1H-pyrazol-4-yl}pyrimidin-2-yl)amino]propan-2-yl]carbamate]"
3,0.69,"COC(=O)N[C@@H](C)CNc1nccc(-c2cn(C(C)C)nc2-c2c(F)ccc(NS(C)(=O)=O)c2F)n1 [Compound 6, methyl N-[(2S)-1-({4-[3-(2,6-difluoro-3-methanesulfonamidophenyl)-1-(propan-2-yl)-1H-pyrazol-4-yl]pyrimidin-2-yl]amino)propan-2-yl]carbamate]"

# System: A375 melanoma cell line (B-Raf V600E)
# Experiment: A375 Cellular Proliferation Assay (A375 CP)
# Format: cell-based
# Conditions: Homo sapiens, A-375, 48 h; A375-luc cells, 2 days; read-out: A375 CP IC50
# Description: A375-luc cells engineered to express luciferase are plated to 384-well white clear bottom plates as 1,500 cells/50 μl/well in DMEM containing 10% FBS. Compounds of the invention dissolved in 100% DMSO at appropriate concentrations are transferred to the cells by a robotic Pin Tool (100 nl). The cells are incubated for 2 days at […], then 25 μl of BrightGlo™ is added to each well and the plates are read by luminescence.
row,SMILES,IC50 [µM]
1,"COC(=O)N[C@@H](C)CNc1nccc(-c2cn(C(C)C)nc2-c2ccnc(NS(C)(=O)=O)c2Cl)n1 [Compound 14, methyl N-[(2S)-1-({4-[3-(3-chloro-2-methanesulfonamidopyridin-4-yl)-1-(propan-2-yl)-1H-pyrazol-4-yl]pyrimidin-2-yl}amino)propan-2-yl]carbamate]",0.079
2,CCCS(=O)(=O)Nc1c(F)ccc(-c2nn(C(C)C)cc2-c2ccnc(NC[C@H](C)NC(=O)OC)n2)c1F [Compound 34],0.013
3,"COC(=O)N[C@@H](C)CNc1nccc(-c2cn(C(C)C)nc2-c2ccnc(NS(C)(=O)=O)c2F)n1 [Compound 16, methyl N-[(2S)-1-({4-[3-(3-fluoro-2-methanesulfonamidopyridin-4-yl)-1-(propan-2-yl)-1H-pyrazol-4-yl]pyrimidin-2-yl}amino)propan-2-yl]carbamate]",1.4
4,"COC(=O)N[C@@H](C)CNc1nccc(-c2cn(C3CCCCO3)nc2-c2cc(Cl)cc(NS(C)(=O)=O)c2F)n1 (stereo partly drawn) [Compound 33, Methyl N-[(2S)-1-({4-(3-(5-chloro-2-fluoro-3-methanesulfonamidophenyl)-1-(oxan-2-yl)-1H-pyrazol-4-yl]pyrimidin-2-yl}amino)propan-2-yl]carbamate]",0.007
5,"CC(C)n1cc(-c2ccnc(NCCN(C)C)n2)c(-c2cc(Cl)cc(NS(C)(=O)=O)c2F)n1 [Compound 28, N-{5-chloro-3-[4-(2-{[2-(dimethylamino)ethyl]amino}pyrimidin-4-yl)-1-(propan-2-yl)-1H-pyrazol-3-yl]-2-fluorophenyl}methanesulfonamide]",0.55
6,"CCCS(=O)(=O)Nc1ccc(F)c(-c2nn(C(C)C)cc2-c2ccnc(NC[C@H](C)NC(=O)OC)n2)c1F [Compound 7, Methyl N-[(2S)-1-[(4-{3-[2,6-difluoro-3-(propane-1-sulfonamido)phenyl]-1-(propan-2-yl)-1H-pyrazol-4-yl}pyrimidin-2-yl)amino]propan-2-yl]carbamate]",0.008
7,"CCS(=O)(=O)Nc1c(F)c(F)cc(-c2nn(C(C)C)cc2-c2ccnc(NC[C@H](C)NC(=O)OC)n2)c1Cl [Compound 18, methyl N-[(2S)-1-({4-[3-(2-chloro-3-ethanesulfonamido-4,5-difluorophenyl)-1-(propan-2-yl)-1H-pyrazol-4-yl]pyrimidin-2-yl}amino)propan-2-yl]carbamate]",0.012
8,"COC(=O)N[C@@H](C)CNc1nccc(-c2cn(C(C)C)nc2-c2c(F)ccc(NS(C)(=O)=O)c2F)n1 [Compound 6, methyl N-[(2S)-1-({4-[3-(2,6-difluoro-3-methanesulfonamidophenyl)-1-(propan-2-yl)-1H-pyrazol-4-yl]pyrimidin-2-yl]amino)propan-2-yl]carbamate]",0.046
9,"CCS(=O)(=O)Nc1c(F)ccc(-c2nn(C(C)C)cc2-c2ccnc(NC[C@H](C)NC(=O)OC)n2)c1F [Compound 26, methyl N-[(2S)-1-({4-[3-(3-ethanesulfonamido-2,4-difluorophenyl)-1-(propan-2-yl)-1H-pyrazol-4-yl]pyrimidin-2-yl}amino)propan-2-yl]carbamate]",0.014
10,"COC(=O)N[C@@H](C)CNc1nccc(-c2cn(C(C)C)nc2-c2ccc(F)c(NS(C)(=O)=O)c2F)n1 [Compound 19, methyl N-[(2S)-1-({4-[3-(2,4-difluoro-3-methanesulfonamidophenyl)-1-(propan-2-yl)-1H-pyrazol-4-yl]pyrimidin-2-yl}amino)propan-2-yl]carbamate]",0.093
11,"CC(C)n1cc(-c2ccnc(N)n2)c(-c2cc(Cl)cc(NS(C)(=O)=O)c2F)n1 [Compound 30, N-{3-[4-(2-aminopyrimidin-4-yl)-1-(propan-2-yl)-1H-pyrazol-3-yl]-5-chloro-2-fluorophenyl}methanesulfonamide]",0.069
12,"COC(=O)N[C@H](C)CNc1nccc(-c2cn(C(C)C)nc2-c2cc(Cl)cc(NS(C)(=O)=O)c2F)n1 [Compound 20, methyl N-[(2R)-1-({4-[3-(5-chloro-2-fluoro-3-methanesulfonamidophenyl)-1-(propan-2-yl)-1H-pyrazol-4-yl]pyrimidin-2-yl}amino)propan-2-yl]carbamate]",0.007
13,COC(=O)N[C@@H](C)CNc1nccc(-c2c[nH]nc2-c2cc(Cl)cc(NS(C)(=O)=O)c2F)n1 [Compound 31],0.18
14,"COC(=O)N[C@@H](C)CNc1nccc(-c2cn(C(C)C)nc2-c2cccc(NS(C)(=O)=O)c2)n1 [Compound 23, methyl N-[(2S)-1-({4-[3-(3-methanesulfonamidophenyl)-1-(propan-2-yl)-1H-pyrazol-4-yl]pyrimidin-2-yl}amino)propan-2-yl]carbamate]",1.15
15,"COC(=O)N[C@@H](C)CNc1nccc(-c2cn(C(C)C)nc2-c2cc(F)c(F)c(NS(C)(=O)=O)c2F)n1 [Compound 21, methyl N-[(2S)-1-({4-[1-(propan-2-yl)-3-(2,4,5-trifluoro-3-methanesulfonamidophenyl)-1H-pyrazol-4-yl]pyrimidin-2-yl}amino)propan-2-yl]carbamate]",0.045
16,COC(=O)N[C@@H](C)CNc1nccc(-c2cn(C(C)C)nc2-c2cccc(NS(=O)(=O)CCC(F)(F)F)c2F)n1 [Compound 8],0.027
17,"COC(=O)N[C@@H](C)CNc1nccc(-c2cn(C(C)C)nc2-c2cc(Cl)cc(NS(C)(=O)=O)c2Cl)n1 [Compound 22, methyl N-[(2S)-1-({4-[3-(2,5-dichloro-3-methanesulfonamidophenyl)-1-(propan-2-yl)-1H-pyrazol-4-yl]pyrimidin-2-yl}amino)propan-2-yl]carbamate]",0.006
18,"COC(=O)N[C@@H](C)CNc1nccc(-c2cn(C(C)C)nc2-c2cc(Cl)cc(NS(C)(=O)=O)c2)n1 [Compound 2, methyl N-[(2S)-1-({4-[3-(3-chloro-5-methanesulfonamidophenyl)-1-(propan-2-yl)-1H-pyrazol-4-yl]pyrimidin-2-yl}amino)propan-2-yl]carbamate]",0.018

# These reach a lower IC50. Values come first.
row,IC50 [µM],SMILES
1,0.004,"COC(=O)N[C@@H](C)CNc1nccc(-c2cn(C(C)C)nc2-c2cc(C)cc(NS(C)(=O)=O)c2F)n1 [Compound 12, methyl N-[(2S)-1-({4-[3-(2-fluoro-3-methanesulfonamido-5-methylphenyl)-1-(propan-2-yl)-1H-pyrazol-4-yl]pyrimidin-2-yl]amino)propan-2-yl]carbamate]"
2,0.004,"COC(=O)N[C@@H](C)CNc1nccc(-c2cn(C(C)C)nc2-c2cc(F)cc(NS(C)(=O)=O)c2Cl)n1 [Compound 15, Methyl N-[(2S)-1-({4-[3-(2-chloro-5-fluoro-3-methanesulfonamidophenyl)-1-(propan-2-yl)-1H-pyrazol-4-yl]pyrimidin-2-yl}amino)propan-2-yl]carbamate]"
3,0.003,"COC(=O)N[C@@H](C)CNc1nccc(-c2cn(C(C)C)nc2-c2cc(F)cc(NS(C)(=O)=O)c2F)n1 [Compound 10, methyl N-[(2S)-1-({4-[3-(2,5-difluoro-3-methanesulfonamidophenyl)-1-(propan-2-yl)-1H-pyrazol-4-yl]pyrimidin-2-yl]amino)propan-2-yl]carbamate]"
4,0.003,"CCn1cc(-c2ccnc(NC[C@H](C)NC(=O)OC)n2)c(-c2cc(Cl)cc(NS(C)(=O)=O)c2F)n1 [Compound 11, methyl N-[(2S)-1-({4-[3-(5-chloro-2-fluoro-3-methanesulfonamidophenyl)-1-ethyl-1H-pyrazol-4-yl]pyrimidin-2-yl}amino)propan-2-yl]carbamate]"
5,0.002,"COC(=O)N[C@@H](C)CNc1nccc(-c2cn(C(C)C)nc2-c2cc(Cl)cc(NS(=O)(=O)C3CC3)c2F)n1 [Compound 25, methyl N-[(2S)-1-({4-[3-(5-chloro-3-cyclopropanesulfonamido-2-fluorophenyl)-1-(propan-2-yl)-1H-pyrazol-4-yl]pyrimidin-2-yl}amino)propan-2-yl]carbamate]"
6,0.002,"CCCS(=O)(=O)Nc1cccc(-c2nn(C(C)C)cc2-c2ccnc(NC[C@H](C)NC(=O)OC)n2)c1F [Compound 3, methyl N-[(2S)-1-[(4-{3-[2-fluoro-3-(propane-1-sulfonamido)phenyl]-1-(propan-2-yl)-1H-pyrazol-4-yl}pyrimidin-2-yl)amino]propan-2-yl]carbamate]"
7,0.002,"CC(C)n1cc(-c2ccnc(NCCC#N)n2)c(-c2cc(Cl)cc(NS(C)(=O)=O)c2F)n1 [Compound 17, N-[5-chloro-3-(4-{2-[(2-cyanoethyl)amino]pyrimidin-4-yl}-1-(propan-2-yl)-1H-pyrazol-3-yl)-2-fluorophenyl]methanesulfonamide]"
8,0.001,"CCCS(=O)(=O)Nc1cc(Cl)cc(-c2nn(C(C)C)cc2-c2ccnc(NC[C@H](C)NC(=O)OC)n2)c1 [Compound 5, methyl N-[(2S)-1-[(4-{3-[3-chloro-5-(propane-1-sulfonamido)phenyl]-1-(propan-2-yl)-1H-pyrazol-4-yl]pyrimidin-2-yl)amino]propan-2-yl]carbamate]"
